Measured values as given in paper PMC6423129, “Activity and structural analysis of GRL-117C: a novel small molecule CCR5 inhibitor active against R5-tropic HIV-1s” (Scientific Reports, 2019).
Marks after values point to notes of the source that are not given here.

How the values were obtained:
R5-HIV-1Ba-L = assay: MAGI assay using MAGI/CCR5 cells and R5-HIV-1Ba-L; assay type: cell-based; settings: Ba-L (MAGI)
Protocol: (§1) MAGI-CCR5 cells[18] were maintained in DMEM supplemented with 10% fetal calf serum (FCS: Gemini Bio-Products, West Sacramento, CA), 200 μg/ml G418, 100 μg/ml hygromycin B, and 100 μg/ml zeomycin. The Chinese hamster ovary (CHO) cells expressing CCR5[19] were maintained in Ham’s F-12 medium (GIBCO-BRL, Rockville, MD) supplemented with 10% FCS, 50 U/ml penicillin, and 50 μg/ml streptomycin in the presence of 5 μg/ml blasticidin S hydrochloride. TZM-bl cells were obtained from the NIH AIDS Reagent Program, and were cultured in DMEM with 10% FCS. Peripheral blood mononuclear cells (PBMCs) were isolated from buffy coats of HIV-1 seronegative individuals, and were activated with 10 μg/ml phytohemagglutinin (PHA) prior to use[16]. A laboratory wild-type R5-HIV-1 strain (HIV-1Ba-L)[37] was employed for drug susceptibility assays. AD101 (experimental CCR5 inhibitor) and VVC-resistant HIV clones[7],[8] were provided by Dr. John P. Moore of Cornell University for this study. The clones were propagated with activated PBMCs, and were used for the assays. A clinical HIV-1 strain, HIV-1KP-5pc, and an MVC-resistant isolate, HIV-1KP-5mvcR, were prepared and used for antiviral assays, as previously described[10],[38]. The following reagents (plasmids) for T/F HIV-1 viruses[22],[24] were obtained through the NIH AIDS Reagent Program, Division of AIDS, NIAID, NIH: pCH040.c/2625 (cat# 11740), pCH106.c/2633 (cat# 11743), pTHRO.c/2626 (cat# 11745), and pCH058.c/2960 (cat# 11856), from Dr. John Kappes and Dr. Christina Ochsenbauer.
(§2) Antiviral assays using PHA-PBMCs (p24 assay) were conducted as previously reported[16],[38]. In brief, PHA-PBMCs (1 × 10^6/ml) were exposed to 50 TCID50 of HIV-1Ba-L or drug-resistant HIV-1 infectious clones in the presence or absence of various concentrations of drugs; 10-fold serial dilutions were performed in 96-well microculture plates. The amount of p24 antigens produced by the cells was determined on day 7 in the culture via a commercially available ELISA kit (PerkinElmer). The p24 production level in drug-free control cell cultures was used as the reference. […] Antiviral assays using MAGI-CCR5 cells (MAGI assay) were conducted as previously reported[16],[39]. Single-round virus infection assays using TZM-bl cells infected with R5-HIV-1s (HIV-1YU2, HIV-1KP-5pc, and HIV-1KP-5mvcR)[10] were also conducted as previously described.

R5-HIV-1BaL = assay: p24 assay using PBMCs and R5-HIV-1BaL; assay type: cell-based; settings: Ba-L (PBMCs), day 7
Protocol: as §1, §2

CC1/85 cl.6 = assay: Anti-HIV-1 assay, drug-naive clinical strain CC1/85 cl.6; assay type: cell-based; settings: CC1/85 cl.6, drug naive R5-HIV-1 clinical strain; read-out: IC50
Protocol: as §1, §2

CC1/85 cl.7 = assay: Anti-HIV-1 assay, drug-naive clinical strain CC1/85 cl.7; assay type: cell-based; settings: CC1/85 cl.7, drug naive R5-HIV-1 clinical strain
Protocol: as §1, §2

[1] = system: CC101.19 cl.7 (AD101 resistant); assay: microbe, parasite or virus in culture; assay type: cell-based, HIV-1
Protocol: as §1, §2

[2] = system: D1/85.16 cl.23 (VVC resistant); assay: microbe, parasite or virus in culture; assay type: cell-based, HIV-1
Protocol: as §1, §2

pCH040.c/2625 = assay: MAGI assay, T/F HIV-1 clone pCH040.c/2625; assay type: cell-based; settings: T/F clone pCH040.c/2625, MAGI assay, mean ± SD; read-out: IC50
From the text: (§3) We also examined the activity of GRL-compounds against Transmitter/founder (T/F) HIV-1 viruses. T/F viruses are involved in the initial infection. It is considered that T/F viruses virtually always use CCR5 rather than CXCR4 and infect T cells but not macrophages because […] of CD4 is needed to mediate virus entry for the initial transmission[20]–[24]. […] We obtained four HIV-1 T/F infectious clones. We determined the antiviral activity of GRL-117C, GRL-10007C and GRL-10018C on these HIV-1 clones using MAGI assay.
as §1, with “A clinical HIV-1 strain, HIV-1KP-5pc, and an MVC-resistant isolate, HIV-1KP-5mvcR, were prepared and used for antiviral assays, as previously described[10],[38].” left out
as §2

pCH0.6.c/2633 = assay: MAGI assay, T/F HIV-1 clone pCH0.6.c/2633; assay type: cell-based; settings: T/F clone pCH0.6.c/2633, MAGI assay, mean ± SD; read-out: IC50
From the text: as §3
as §1, with “A clinical HIV-1 strain, HIV-1KP-5pc, and an MVC-resistant isolate, HIV-1KP-5mvcR, were prepared and used for antiviral assays, as previously described[10],[38].” left out
as §2

pTHRO.c/2626 = assay: MAGI assay, T/F HIV-1 clone pTHRO.c/2626; assay type: cell-based; settings: T/F clone pTHRO.c/2626, MAGI assay, mean ± SD; read-out: IC50
From the text: as §3
as §1, with “A clinical HIV-1 strain, HIV-1KP-5pc, and an MVC-resistant isolate, HIV-1KP-5mvcR, were prepared and used for antiviral assays, as previously described[10],[38].” left out
as §2

pCH058.c/2960 = assay: MAGI assay, T/F HIV-1 clone pCH058.c/2960; assay type: cell-based; settings: T/F clone pCH058.c/2960, MAGI assay, mean ± SD; read-out: IC50
From the text: as §3
as §1, with “A clinical HIV-1 strain, HIV-1KP-5pc, and an MVC-resistant isolate, HIV-1KP-5mvcR, were prepared and used for antiviral assays, as previously described[10],[38].” left out
as §2

[3] = system: Transmitter/founder (T/F) HIV-1 viruses; assay: MAGI assay, all four T/F viruses (range); assay type: cell-based; settings: four T/F HIV-1 clones, MAGI assay; read-out: IC50 values (range over four T/F viruses)
From the text: as §3
MAGI-CCR5 cells[18] were maintained in DMEM supplemented with 10% fetal calf serum (FCS: Gemini Bio-Products, West Sacramento, CA), 200 μg/ml G418, 100 μg/ml hygromycin B, and 100 μg/ml zeomycin. The Chinese hamster ovary (CHO) cells expressing CCR5[19] were maintained in Ham’s F-12 medium (GIBCO-BRL, Rockville, MD) supplemented with 10% FCS, 50 U/ml penicillin, and 50 μg/ml streptomycin in the presence of 5 μg/ml blasticidin S hydrochloride. TZM-bl cells were obtained from the NIH AIDS Reagent Program, and were cultured in DMEM with 10% FCS. […]
Antiviral assays using PHA-PBMCs (p24 assay) were conducted as previously reported[16],[38]. […] The amount of p24 antigens produced by the cells was determined on day 7 in the culture via a commercially available ELISA kit (PerkinElmer). […]

HIV-1YU2 = assay: TZM-bl single-round infection assay, HIV-1YU2; assay type: cell-based; settings: YU2, drug-sensitive, mean ± SD
Protocol: as §1, §2

HIV-1KP-5pc = assay: TZM-bl single-round infection assay, HIV-1KP-5pc; assay type: cell-based; settings: KP-5pc, drug-sensitive clinical strain, TZM-bl assay, mean ± SD
Protocol: as §1, §2

HIV-1KP-5mvcR = assay: TZM-bl single-round infection assay, MVC-resistant HIV-1KP-5mvcR; assay type: cell-based; settings: KP-5mvcR, MVC-resistant, TZM-bl assay, mean ± SD
Protocol: as §1, §2

Maraviroc [MVC]
IC50 (R5-HIV-1Ba-L): 0.7 nM | IC90 (R5-HIV-1Ba-L): 6.4 nM | IC50 (R5-HIV-1BaL): 4.5 nM | IC90 (R5-HIV-1BaL): 21.6 nM | IC50 (CC1/85 cl.6): 1.7 nM | IC50 (CC1/85 cl.7; read-out: IC50): 2.5 nM | IC90 (CC1/85 cl.7; read-out: IC90): 20.6 nM | fold increases of IC50s compared to wild type (CC1/85 cl.7) ([1]; CC101.19 cl.7 (AD101 resistant) vs CC1/85 cl.7): (×15)^e fold | IC50 ([1]; CC101.19 cl.7 (AD101 resistant), read-out: IC50): 36.9 nM | IC90 ([1]; CC101.19 cl.7 (AD101 resistant), read-out: IC90): 486 nM | fold increases of IC50s compared to wild type (CC1/85 cl.7) ([2]; D1/85.16 cl.23 (VVC resistant) vs CC1/85 cl.7): (×11)^e fold | IC50 ([2]; D1/85.16 cl.23 (VVC resistant), read-out: IC50): 26.5 nM | IC90 ([2]; D1/85.16 cl.23 (VVC resistant), read-out: IC90): 376 nM | IC50 (pCH040.c/2625): 1.7 ± 0.1 nM | IC50 (pCH0.6.c/2633): 2.3 ± 0.3 nM | IC50 (pTHRO.c/2626): 2.2 ± 0.8 nM | IC50 (pCH058.c/2960): 1.9 ± 0.1 nM | IC50 [3]: 1.7 to 2.3 nM | IC50 (HIV-1YU2): 3.5 ± 2.5 nM | IC90 (HIV-1YU2): 15 nM | IC50 (HIV-1KP-5pc; read-out: IC50): 8.5 ± 3.6 nM | IC90 (HIV-1KP-5pc; read-out: IC90 (converted)): 81 nM | IC50 (HIV-1KP-5mvcR; read-out: IC50): 36 ± 28 nM | IC90 (HIV-1KP-5mvcR; read-out: IC90 (converted)): 236 nM
